# Key:
# carboxypeptidase A (CPA) = target: T1, carboxypeptidase A (CPA) (Homo sapiens, UniProt P15085); assay: Enzyme assay of Compound A and CPA (fluorescence increase); format: biochemical; settings: 37° C.
# T1 sequence (P15085 111-419): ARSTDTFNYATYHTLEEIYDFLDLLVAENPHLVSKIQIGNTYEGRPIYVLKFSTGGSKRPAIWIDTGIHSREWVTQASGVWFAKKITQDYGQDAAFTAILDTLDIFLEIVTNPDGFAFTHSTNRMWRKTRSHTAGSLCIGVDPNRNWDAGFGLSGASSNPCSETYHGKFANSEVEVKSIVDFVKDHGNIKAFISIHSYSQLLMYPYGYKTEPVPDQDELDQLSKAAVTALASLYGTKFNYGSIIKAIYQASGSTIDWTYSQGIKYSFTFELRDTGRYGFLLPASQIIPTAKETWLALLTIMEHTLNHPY
# Description: An enzyme assay using the synthesized Compounds A, B was performed.
# (§1) FIG. 2(a) illustrates a reaction scheme of Compound A and CPA. In FIG. 2(b), 10 μM Compound A in PBS (-) was incubated at 37° C. with 5 ng CPA activated by 1.5 μg trypsin in the presence or absence of 100 μM inhibitor ((S)-benzylsuccinic acid) containing 0.1% DMSO as a co-solvent. Ex/Em=355/460 nm. n=4. (In FIG. 2, Try represents trypsin, and SBSA represents (S)-benzylsuccinic acid.)
# PSMA = PSMA (Homo sapiens, UniProt Q04609); assay: Enzyme assay of probes and PSMA (fluorescence increase); format: biochemical; settings: 10 μM probe in TBS buffer, 37° C., 22 ng PSMA, Ex/Em=355/460 nm
# Description: An enzyme assay was performed using the synthesized 4MU-tSoul-AE and PSMA.
# An enzyme assay was performed using the synthesized 4MU-tSoul-GE and PSMA.
# Here, FIG. 9(a) illustrates a reaction scheme of 4MU-tSoul-GE and PSMA. […] Ex/Em=355/460 nm. n=3.
# trypsin = target: T2, trypsin (Bos taurus, UniProt P00760); assay: Compound A with only trypsin added (control condition of the CPA assay); format: biochemical; settings: 10 μM Compound A, no CPA
# T2 construct: gene PRSS1
# T2 sequence (P00760 24-246): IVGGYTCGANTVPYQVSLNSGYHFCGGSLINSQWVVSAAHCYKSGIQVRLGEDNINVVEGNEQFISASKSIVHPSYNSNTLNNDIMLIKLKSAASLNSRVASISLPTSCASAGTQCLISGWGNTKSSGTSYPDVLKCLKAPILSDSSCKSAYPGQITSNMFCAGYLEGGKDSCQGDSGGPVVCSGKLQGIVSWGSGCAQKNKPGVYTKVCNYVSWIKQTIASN
# Description: (§2) An enzyme assay using the synthesized Compounds A, B was performed. As a result, the fluorescence of Compounds A and B was increased by incubation with carboxypeptidase A (CPA) and carboxypeptidase B (CPB) which were the respective target enzymes, and the increase in fluorescence was suppressed by addition of (S)-benzylsuccinic acid and MGTA which were the respective inhibitors.
# as §1
# [1] = format: physicochemical; settings: for fluorescence change in the absence of enzyme (non-enzymatic degradation): 10 μM probe in PBS(-), pH 7.4, 37° C., no enzyme
# Description: as §2
# (§3) FIG. 4(a) illustrates a reaction scheme of Compound C and CPB. In FIG. 4(b), 10 μM Compound C in PBS (-) was incubated at 37° C. in the presence or absence of 5 ng CPB containing 0.1% DMSO as a co-solvent. Ex/Em=355/460 nm. n=4. […] 10 μM Compound A or Compound C in PBS (-) was incubated at 37° C. in the absence of CPB. Ex/Em=355/460 nm. n=4.
# (§4) Next, reactivity with CPB and the stability in a buffer solution having a pH of 7.4 were examined. As a result, it became clear that while HMRef-tSoul-AR caused a fluorescence increase of 3320 times by reaction with CPB, HMRef-tSoul-AR was stable for at least about 1 hour in the absence of enzyme. The results are illustrated in FIG. 5.
# (§5) FIG. 5(a) illustrates a reaction scheme of HMRef-tSoul-AR and CPB. FIG. 5(b) illustrates the fluorescence increase of 1 μM HMRef-tSoul-AR in PBS (-) incubated with 30 μg CPB containing 0.1% DMSO as a co-solvent. Incubation was performed at 25° C. The excitation wavelength was 498 nm. FIG. 5(c) illustrates an absorption change of 1 μM HMRef-tSoul-AR in PBS (-) at 25° C. for 50 minutes.
# carboxypeptidase B (CPB) = target: T3, carboxypeptidase B (CPB) (Homo sapiens, UniProt P15086); format: biochemical; settings: for fluorescence change on incubation with CPB: 10 μM probe in PBS(-), Ex/Em=355/460 nm
# T3 sequence (P15086 111-417): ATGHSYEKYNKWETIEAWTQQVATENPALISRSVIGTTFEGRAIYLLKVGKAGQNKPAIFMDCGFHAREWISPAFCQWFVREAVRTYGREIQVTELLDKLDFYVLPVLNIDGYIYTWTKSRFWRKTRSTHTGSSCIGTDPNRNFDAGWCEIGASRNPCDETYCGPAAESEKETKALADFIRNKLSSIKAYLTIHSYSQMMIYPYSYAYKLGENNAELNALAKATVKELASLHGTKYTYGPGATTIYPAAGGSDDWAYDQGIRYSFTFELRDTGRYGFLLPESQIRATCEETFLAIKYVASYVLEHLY
# Description: as §2
# FIG. 3(a) illustrates a reaction scheme of Compound B and CPB. In FIG. 3(b), 10 μM Compound B in PBS (-) was incubated at 37° C. with 5 ng CPB in the presence or absence of 100 μM inhibitor (MGTA) containing 0.1% DMSO as a co-solvent. Ex/Em=355/460 nm. n=4.
# An enzyme assay using the synthesized Compound C and CPB was performed.
# as §3, §4, §5
# [2] = test system: MDCK cells expressing CPM; assay: Live imaging of CPM activity in MDCK cells; format: cell-based
# Description: Live imaging of the carboxypeptidase activity in living cells was performed using HMRef-tSoul-AR synthesized above. […] Since it has been reported that CPM is expressed as an active form on a cell membrane unlike CPB, addition of trypsin or the like is unnecessary.
# Here, FIGS. 6(a) and 6(b) illustrate fluorescence images of the MDCK cells containing 10 μM HMRef-tSoul-AR in HBSS in the presence (a) or absence (b) of 10 μM MGTA. Ex/Em=488/500-550 nm laser output 5%, PMT 600 V. 10 μM Hoechst 33342 was co-incubated for focal plane correction. For imaging of a Hoechst signal, Ex/Em=405/430-460 nm. Laser output 3%, PMT 1000 V, SP8.
# Here, FIG. 7 illustrates results of UPLC analysis of a medium of the MDCK cells incubated with 20 μM HMRef-tSoul-AR in the presence or absence of 10 μM MGTA. The MDCK cells were incubated with 20 μM HMRef-tSoul-AR in HBSS at 37° C. for 20 hours in the presence or absence of 10 μM MGTA. Elution was performed with a linear gradient of C/D=95/5 to 5/95 in 4 minutes and detected at 254 nm.
# CPB = target: T4, CPB (Homo sapiens, UniProt P15086); assay: Enzyme reaction rate parameters with CPB (fluorescence method, plate reader); format: biochemical; settings: CPB 5 ng, 37° C., PBS pH 7.4, 20 μL, apparent
# T4 sequence (P15086 111-417): T3 sequence (P15086 111-417)
# Description: (§6) In addition, an enzyme reaction rate parameter was calculated.
# (§7) All experiments were performed at 37° C. in a total volume of 20 μL of phosphate buffered saline (pH 7.4) containing DMSO as a co-solvent. 5 ng of CPB or CPM was added. An enzyme reaction initial rate was calculated from a fluorescence change at 535 nm using a plate reader (n=3). The excitation wavelength was 485 nm.
# carboxypeptidase M (CPM) = target: T5, carboxypeptidase M (CPM) (Homo sapiens, UniProt P14384); assay: Enzyme reaction rate parameters with CPM (fluorescence method, plate reader); format: biochemical
# T5 sequence (P14384 18-423): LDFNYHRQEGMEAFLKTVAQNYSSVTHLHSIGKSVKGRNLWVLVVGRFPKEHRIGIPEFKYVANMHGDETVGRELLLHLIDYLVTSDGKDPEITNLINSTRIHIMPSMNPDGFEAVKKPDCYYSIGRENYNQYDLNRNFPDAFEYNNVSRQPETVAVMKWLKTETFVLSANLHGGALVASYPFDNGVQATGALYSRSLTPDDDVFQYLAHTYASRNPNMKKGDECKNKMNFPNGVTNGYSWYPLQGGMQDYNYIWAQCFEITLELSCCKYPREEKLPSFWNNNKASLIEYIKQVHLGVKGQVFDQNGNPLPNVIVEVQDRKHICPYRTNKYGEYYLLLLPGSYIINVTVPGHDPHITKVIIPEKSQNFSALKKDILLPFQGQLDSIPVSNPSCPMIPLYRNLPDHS
# Description: as §6, §7
# [3] = test system: basic carboxypeptidase activity in breast cancer tissue; assay: Fluorescence imaging of clinical specimens derived from breast cancer patients; set-up: species or system human
# Description: Four specimens (IDC: invasive ductal carcinoma, 3 cases; DCIS: ductal carcinoma in situ, 1 case) derived from breast cancer patients were subjected to fluorescence imaging by applying HMRef-tSoul-AR to a tumor site and a normal site by the following procedure (FIG. 10).
# HMRef-tSoul-AR was dissolved in PBS so as to have a final concentration of 50 μM (containing 1% DMSO), and applied to clinical specimens from breast cancer patients in the presence and absence of 100 μM MGTA. A fluorescence image was captured on Maestro in vivo imaging system (PerkinElmer, Inc., MA, USA), a 455 nm (435-480 nm) band pass filter was used as an excitation light filter, and a 490 nm long pass filter was used as a fluorescence filter.
# When an increase was observed, in order to examine whether or not the increase was derived from basic carboxypeptidase activity, a group to which the inhibitor MGTA was added was also examined at the same time.
# [4] = CPM 5 ng, 37° C., PBS pH 7.4, 20 μL, apparent
# PSMA, sequence (Q04609 whole entry): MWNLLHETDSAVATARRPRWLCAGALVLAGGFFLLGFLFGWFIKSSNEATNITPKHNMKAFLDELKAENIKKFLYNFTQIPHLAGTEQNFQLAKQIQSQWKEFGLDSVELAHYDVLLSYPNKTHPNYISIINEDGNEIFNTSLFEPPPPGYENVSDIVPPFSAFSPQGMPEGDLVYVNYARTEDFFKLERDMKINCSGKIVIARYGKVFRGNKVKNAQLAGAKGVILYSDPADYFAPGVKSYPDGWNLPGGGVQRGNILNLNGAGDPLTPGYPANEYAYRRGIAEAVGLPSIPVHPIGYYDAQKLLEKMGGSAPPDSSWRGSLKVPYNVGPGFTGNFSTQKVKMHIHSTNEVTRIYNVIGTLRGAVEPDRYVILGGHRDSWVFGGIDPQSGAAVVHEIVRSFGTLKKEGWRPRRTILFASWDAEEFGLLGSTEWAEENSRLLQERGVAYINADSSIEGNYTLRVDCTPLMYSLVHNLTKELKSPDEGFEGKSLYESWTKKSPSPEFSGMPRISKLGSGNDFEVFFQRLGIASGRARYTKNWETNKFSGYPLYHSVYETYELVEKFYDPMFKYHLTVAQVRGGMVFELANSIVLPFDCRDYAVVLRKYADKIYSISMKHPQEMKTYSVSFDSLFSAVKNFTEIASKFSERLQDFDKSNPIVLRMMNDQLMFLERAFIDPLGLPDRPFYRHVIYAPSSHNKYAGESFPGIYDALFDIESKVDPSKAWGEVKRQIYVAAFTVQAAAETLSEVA
smiles,measurement,setting,value
"O=C(O)C[C@H](Cc1ccccc1)C(=O)O [(S)-benzylsuccinic acid, reference compound]",effect of inhibitor on the increase in fluorescence of Compound A with CPA,"carboxypeptidase A (CPA); 100 μM inhibitor, 10 μM Compound A, 5 ng CPA",suppressed
Cc1cc(=O)oc2cc(OP(=O)(N[C@@H](C)C(=O)N[C@@H](CCC(=O)O)C(=O)O)C(C)(C)C)ccc12 (stereo partly shown) [Compound 4MU-tSoul-AE],fluorescence change on incubation with PSMA,PSMA,the increase in fluorescence was not observed
Cc1cc(=O)oc2cc(OP(=O)(NCC(=O)N[C@@H](CCC(=O)O)C(=O)O)C(C)(C)C)ccc12 (stereo partly shown) [Compound 4MU-tSoul-GE],fluorescence change on incubation with PSMA,PSMA,the increase in fluorescence was observed
CCOP(=O)(N[C@@H](C)C(=O)N[C@@H](Cc1ccccc1)C(=O)O)Oc1ccc2c(C)cc(=O)oc2c1 (stereo partly shown) [Compound A],fluorescence change with only trypsin added,trypsin,a remarkable increase in fluorescence was not observed
same,fluorescence change in the absence of enzyme (non-enzymatic degradation),[1],gradually increased even slightly
same,fluorescence change on incubation with CPA,"carboxypeptidase A (CPA); 10 μM probe in PBS(-), 5 ng CPA activated by 1.5 μg trypsin, Ex/Em=355/460 nm",increased
CCOP(=O)(N[C@@H](C)C(=O)N[C@@H](CCCNC(=N)N)C(=O)O)Oc1ccc2c(C)cc(=O)oc2c1 (stereo partly shown) [Compound B],fluorescence change on incubation with CPB,"carboxypeptidase B (CPB); 37° C., 5 ng CPB",increased
same,fluorescence change in the absence of enzyme (non-enzymatic degradation),[1],gradually increased even slightly
Cc1cc(=O)oc2cc(OP(=O)(N[C@@H](C)C(=O)N[C@@H](CCCNC(=N)N)C(=O)O)C(C)(C)C)ccc12 (stereo partly shown) [Compound C],fluorescence change on incubation with CPB,"carboxypeptidase B (CPB); 37° C., 5 ng CPB",served as a substrate for CPB and showed the increase in fluorescence
same,fluorescence change in the absence of enzyme (non-enzymatic degradation),[1],no increase in fluorescence was observed
C[C@H](NP(=O)(Oc1ccc2c(c1)Oc1cc(NCC(F)(F)F)ccc1C21OCc2ccccc21)C(C)(C)C)C(=O)N[C@@H](CCCNC(=N)N)C(=O)O (stereo partly shown) [HMRef-tSoul-AR],fluorescence from MDCK cells over time,"[2]; 10 μM probe in HBSS, Ex/Em=488/500-550 nm",an increase in fluorescence over time from the MDCK cells was observed
same,generation of HMRef in external liquid of MDCK cells (UPLC),"[2]; 20 μM probe, HBSS, 37° C., 20 hours",HMRef was certainly generated
same,Km,CPB,50 µM
same,Vmax,CPB,1.2e-08 M/s
same,kcat,CPB,1.7 s⁻¹
same,fluorescence increase by reaction with CPB,"carboxypeptidase B (CPB); 1 μM probe in PBS(-), 30 μg CPB, 25° C., excitation 498 nm",3320 times
same,time stable in the absence of enzyme,"[1]; 1 μM probe, buffer pH 7.4, 25° C., absorption change",at least 1 hour
same,substrate recognition by CPM,carboxypeptidase M (CPM),served as a substrate
same,Km,carboxypeptidase M (CPM); [4],61 µM
same,Vmax,carboxypeptidase M (CPM); [4],4e-08 M/s
same,kcat,carboxypeptidase M (CPM); [4],1.0 s⁻¹
same,fluorescence from tumor tissue as compared with normal tissue,"[3]; 50 μM probe in PBS (1% DMSO), four breast cancer specimens",remarkable increase in fluorescence
"NC(N)=NCCSCC(CS)C(=O)O (stereo not shown) [MGTA, reference compound]",effect of inhibitor on the increase in fluorescence of HMRef-tSoul-AR in MDCK cells,"[2]; 10 μM inhibitor, 10 μM HMRef-tSoul-AR in HBSS",completely suppressed
same,effect of inhibitor on the increase in fluorescence of Compound B with CPB,"carboxypeptidase B (CPB); 100 μM inhibitor, 10 μM Compound B, 5 ng CPB, 37° C.",suppressed
same,effect of inhibitor on the increase in fluorescence of HMRef-tSoul-AR in breast cancer specimens,"[3]; 100 μM inhibitor, 50 μM HMRef-tSoul-AR",suppressed
